Laboratory results reported in patent US20240358668A1, “METHODS AND CO[…] AM[…] CARD[…] USING (R)-2-AMINO-3-PH[…]” (AXSOME THERAPEUTICS, INC., priority 2021, published 2024).
Marks after values point to notes of the source that are not given here.

System: adults with EDS associated with OSA
Assay: 12-week phase 3 trial in OSA: vital signs, antihypertensive medication use, AEs of hypertension/increased BP
Type: in vivo, human
Description: An exploratory analysis of data from one 12-week randomized, controlled trial (Schweitzer P K, et al. Am J Respir Crit Care Med. 2019; 199(11):1421-31) and 1 long-term open-label extension (OLE) trial in adults with EDS (Epworth Sleepiness Scale score ≥10) associated with OSA (Malhotra A, et al. Sleep. 2020; 43(2):zsz220) was carried out. Participants with current/prior use of primary OSA therapy (positive airway pressure [PAP], oral pressure therapy, oral appliance, or upper airway stimulation) were eligible, regardless of the level of adherence to primary OSA therapy; participants who had not attempted to use primary OSA therapy were excluded. Adherence to primary OSA therapy was defined as PAP use ≥4 hours/night on ≥70% of nights/week, historical report (with investigator concurrence) of oral appliance use on ≥70% of nights, or effective surgical intervention. Nonadherence to primary OSA therapy was defined as device use at a level lower than specific above, no device use at all, or surgical intervention deemed no longer effective. Participants received placebo or solriamfetol 37.5 (12-week trial only), 75, 150, or 300 mg/day for 12 weeks (12-week trial) or ≤40 weeks (OLE trial). Vital signs, antihypertensive medication use, and adverse events (AEs) were monitored throughout the studies. Baseline demographics, CV comorbidities, and concomitant medications, the percentage of participants who initiated antihypertensive medication use during treatment, and the incidence of and discontinuations due to AEs of hypertension/increased BP were summarized for the safety population (participants who received ≥1 dose of study medication).

Structure (SMILES): NC(=O)OC[C@H](N)Cc1ccccc1 [Solriamfetol, (R)-2-amino-3-phenylpropyl carbamate]
- total participants with AEs of hypertension/increased BP (12-week study): 10 participants
- AE of HTN/increased BP (12-week study, 37.5 mg): 0 n (%)
- Discontinuation due to AE of HTN/increased BP (12-week study, 37.5 mg): 0 n (%)
- Initiated anti-HTN (12-week study, 37.5 mg): 1 (1.7) n (%)
- AE of HTN/increased BP (12-week study, 75 mg): 0 n (%)
- Discontinuation due to AE of HTN/increased BP (12-week study, 75 mg): 0 n (%)
- Initiated anti-HTN (12-week study, 75 mg): 0 n (%)
- AE of HTN/increased BP, (%) (12-week study, 150 mg): (4.3) %
- Discontinuation due to AE of HTN/increased BP, (%) (12-week study, 150 mg): (0.9)^b %
- Initiated anti-HTN (12-week study, 150 mg): 1 (0.9) n (%)
- AE of HTN/increased BP, (%) (12-week study, 300 mg): (4.2) %
- Discontinuation due to AE of HTN/increased BP (12-week study, 300 mg): 0 n (%)
- Initiated anti-HTN (12-week study, 300 mg): 2 (1.7) n (%)
- serious CV AEs (12-week trial): no serious CV AEs
